Test results as given in the supplement of paper PMC10307832.

Experiments:
Test in all cases: relative viability (nuclei count vs DMSO), 5 days (fraction); higher = more cells survive
[1] = compound: COC1=CC=C(C=C1)CN2C=CC3=C2C=C(C=C3)C(=O)NO + CS(=O)(=O)CCNCc1ccc(-c2ccc3ncnc(Nc4ccc(OCc5cccc(F)c5)c(Cl)c4)c3c2)o1 [Lapatinib] (partner 2 µM)
How it was run: (§1)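 Medians of duplicate plates are given as relative viability. That measure is the nuclei count in treated wells divided by the count in vehicle wells. Counts were taken on 4× images of lung cancer cell lines in 1536-well plates, 5 days after pin-tool dosing the day after seeding with one drug alone or a fixed anchor-drug dose plus five library-drug doses (not always all listed) in √10 steps.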

Veliparib + Alpelisib = compound: C[C@]1(c2nc3c(C(N)=O)cccc3[nH]2)CCCN1 [Veliparib] + Cc1nc(NC(=O)N2CCC[C@H]2C(N)=O)sc1-c1ccnc(C(C)(C)C(F)(F)F)c1 [Alpelisib] (partner 2 µM)
How it was run: as §1

Veliparib + Lapatinib = compound: C[C@]1(c2nc3c(C(N)=O)cccc3[nH]2)CCCN1 [Veliparib] + CS(=O)(=O)CCNCc1ccc(-c2ccc3ncnc(Nc4ccc(OCc5cccc(F)c5)c(Cl)c4)c3c2)o1 [Lapatinib] (partner 2 µM)
How it was run: as §1

[2] = compound: COC1=CC=C(C=C1)CN2C=CC3=C2C=C(C=C3)C(=O)NO + CS(=O)(=O)N1CCN(Cc2cc3nc(-c4cccc5[nH]ncc45)nc(N4CCOCC4)c3s2)CC1 [Pictilisib] (partner 1 µM)
How it was run: as §1

| Cell Line | relative viability ([1]; first compound 0.08 µM) | relative viability ([1]; first compound 0.253 µM) | relative viability ([1]; first compound 0.8 µM) | relative viability ([1]; first compound 2.53 µM) | relative viability ([1]; first compound 8 µM) | relative viability (Veliparib + Alpelisib; first compound 0.02 µM) | relative viability (Veliparib + Alpelisib; first compound 0.06325 µM) | relative viability (Veliparib + Alpelisib; first compound 0.2 µM) | relative viability (Veliparib + Alpelisib; first compound 0.6325 µM) | relative viability (Veliparib + Alpelisib; first compound 2 µM) | relative viability (Veliparib + Lapatinib; first compound 0.02 µM) | relative viability (Veliparib + Lapatinib; first compound 0.06325 µM) | relative viability (Veliparib + Lapatinib; first compound 0.2 µM) | relative viability (Veliparib + Lapatinib; first compound 0.6325 µM) | relative viability (Veliparib + Lapatinib; first compound 2 µM) | relative viability ([2]; first compound 0.08 µM) | relative viability ([2]; first compound 0.253 µM) | relative viability ([2]; first compound 0.8 µM) | relative viability ([2]; first compound 2.53 µM) | relative viability ([2]; first compound 8 µM) |
| --- | --- | --- | --- | --- | --- | --- | --- | --- | --- | --- | --- | --- | --- | --- | --- | --- | --- | --- | --- | --- |
| PC-14 | 0.199 | 0.349 | 0.38 | 0.384 | 0.373 | 0.923 | 0.862 | 0.796 | 0.886 | 0.893 | 0.279 | 0.367 | 0.323 | 0.28 | 0.315 | 0.388 | 0.629 | 0.766 | 0.688 | 0.699 |
| NCI-H1944 |  | 0.834 | 0.86 | 0.817 | 0.701 | 0.792 | 0.849 | 0.752 | 0.818 | 0.756 | 0.825 | 0.748 | 0.627 | 0.72 | 0.767 |  | 0.37 | 0.317 | 0.357 | 0.322 |
| SK-MES-1 | 0.473 | 0.519 | 0.534 | 0.497 | 0.446 | 0.938 | 0.712 | 0.878 | 0.785 | 0.848 | 0.5 | 0.413 | 0.438 | 0.473 | 0.473 | 0.343 | 0.384 | 0.368 | 0.36 | 0.332 |
| HCC-44 | 0.777 | 0.924 | 0.944 | 0.921 | 0.963 | 0.807 | 0.648 | 0.844 | 0.762 | 0.803 | 0.986 | 0.85 | 1.01 | 0.933 | 1.07 | 0.547 | 0.746 | 0.616 | 0.568 | 0.547 |
| H3255 | 0.184 | 0.247 | 0.221 | 0.238 | 0.226 | 0.656 | 0.841 | 0.679 | 0.522 | 0.701 | 0.227 | 0.209 | 0.27 | 0.289 | 0.261 | 0.428 | 0.411 | 0.416 | 0.436 | 0.467 |
| NCI-H2228 | 0.864 | 0.853 | 1.11 | 0.916 | 0.789 | 0.818 | 0.688 | 0.832 | 0.623 | 0.678 | 0.968 | 0.889 | 1.11 | 0.96 | 1.06 | 0.375 | 0.326 | 0.536 | 0.46 | 0.251 |
| COR-L 105 |  | 0.367 | 0.37 | 0.341 | 0.296 | 1.12 | 1.1 | 1.09 | 0.862 | 1.11 | 0.35 | 0.371 | 0.327 | 0.362 | 0.388 |  | 0.348 | 0.462 | 0.363 | 0.306 |
| RERF-LC-KJ | 0.428 | 0.881 | 0.924 | 0.95 | 0.869 | 0.715 | 0.891 | 0.96 | 0.761 | 0.74 | 0.839 | 0.82 | 0.853 | 0.813 | 0.854 | 0.468 | 0.571 | 0.511 | 0.608 | 0.472 |
| NCI-H1703 | 0.691 | 1.16 | 1.1 | 1.07 | 0.873 | 0.245 | 0.303 | 0.316 | 0.35 | 0.368 | 1.11 | 0.922 | 1.35 | 0.982 | 1.2 |  | 0.259 | 0.221 | 0.256 | 0.147 |
